Consider one compound from patent EP2252246B1, “CHEMOPROTECTIVE METHODS AND COMPOSITIONS” (BIONUMERIK PHARMACEUTICALS, INC., priority 2008, dated 2009).

In one data set the test system is tubulin. As to conditions: paclitaxel 6 µM; cited from earlier work.
The conditions of data set [1]: human, in vivo.
Description: • Figure 1 illustrates a comparison of the number of hypersensitivity Adverse Events between groups of patients in whom 2,2'-dithio-bis-ethane sulfonate or a placebo was infused over (1) 30 minutes, (2) 30 and 45 minutes, or (3) 45 minutes. […] Drug concentrations of disodium 2,2'-dithio-bis-ethane sulfonate administered were 200 mg/mL infused over 30 minutes, 200 mg/mL and 100 mg/mL infused over 30 & 45 minutes, respectively, and 100 mg/mL infused over 45 minutes.
The patients' body surface area (BSA) was determined based on the use of standard methods that are customarily used for such purposes, including standardized nomograms and calculations that utilize the individual height and weight data from each patient.
Figure 1 illustrates a comparison of the number of hypersensitivity Adverse Events between groups of patients in whom 2,2'-dithio-bis-ethane sulfonate or a placebo was infused over (1) 30 minutes, (2) 30 minutes and 45 minutes, or (3) 45 minutes. In addition, the total number of hypersensitivity Adverse Events, the mean time to the first hypersensitivity Adverse Event, and a variety of the types of hypersensitivity Adverse Events were also shown.
Drug concentrations administered were about 200 mg/mL infused over about 30 minutes, about 200 mg/mL and about 100 mg/mL infused over about 30 & about 45 minutes, respectively, and about 100 mg/mL infused over about 45 minutes.
For data set [2], the system named is patients with advanced non-small cell lung carcinoma (NSCLC). Briefly: Japan Phase III Clinical Trial (paclitaxel + cisplatin, placebo-controlled; PNQ primary evaluation). It is filed as in vivo, human. As to conditions: paclitaxel/Tavocept/cisplatin vs paclitaxel/saline placebo/cisplatin, NSCLC patients (Figure 5). As to the method: The Japan Phase III Clinical Trial was conducted as a double-blind study because peripheral neuropathy is diagnosed based on subjective symptoms evaluated through clinical interviews, lab tests, and the like. Accordingly, evaluations by both physicians and patients are highly important. […] A placebo was used as control since there is no established therapy or drug for preventing peripheral neuropathy. Because the severity of peripheral neuropathy is evaluated based on patients' reports (i.e., subjective symptoms), the Peripheral Neuropathy Questionnaire (PNQ^© was used in primary evaluation. The CIPN-20 questionnaire and the National Cancer Institute - Common Toxicity Criteria (NCI-CTC) were used in secondary evaluation. The incidence and severity of adverse reactions, time to their onset, etc. and the like, were compared between patients treated with Tavocept™ and those given a placebo using the aforementioned methods.
The Primary Endpoint of the Japan Phase III Clinical Trial described in the present invention was specifically designed to test the hypothesis of whether chemotherapy-induced intermittent peripheral neuropathy would occur. […] The results illustrated in Figure 3 indicate that intermittent peripheral neuropathy was specifically identified and measured in the Japan Phase III Clinical Trial. […]

The subject of data set [3] is paclitaxel-induced neuropathy model. Put plainly: Paclitaxel-induced thermoparesthesia in the paclitaxel-induced neuropathy model. It is filed as in vivo, rats. The conditions noted are these: for maximum inhibition rate (thermoparesthesia): paclitaxel 6 mg/kg i.v. 5-times every other day.

As for `O=S(=O)([O-])CCSSCCS(=O)(=O)[O-].[Na+].[Na+]` [Tavocept, disodium 2,2'-dithio-bis-ethane sulfonate], the “concentration that inhibits tubulin polymerization induced by paclitaxel” value in the data set with tubulin was 6 mM. Moreover, the “reduction in hypersensitivity Adverse Events in the treatment population” value in data set [1] is reported as not above 57%. Also, in data set [2], the “reduction in severe (Grade D or E) intermittent or cumulative peripheral neuropathy” value is recorded as approximately 50%. Also, the figures for the “maximum inhibition rate (thermoparesthesia)” value in data set [3] (1,000 mg/kg) and in data set [3] (2,000 mg/kg) were 41.7% and 41.5%, respectively. Further, the “inhibition rates of thermoparesthesia” value in data set [3] (2,000 mg/kg i.v. immediately after paclitaxel 12 mg/kg i.p. once a week for 5 weeks) is given as 19.2-34.1%.
